Results on two compounds are retold here after EPA's ToxRefDB 2.

In one series the test system is dog. Particulars: Sub-acute repeat dose toxicity; beagle; Oral; Capsule; dose end: 1 month; group: systemic; systemic / clinical chemistry / glucose / glucose + systemic / in life observation / body weight / body weight + systemic / in life ….
A further series concerns rat. The following applies: Fertility (Segment I), sprague dawley, Oral, Gavage/Intubation, dose end: 49 day.
In another series the test system is mouse. The following applies: Sub-acute repeat dose toxicity, Oral, Gavage/Intubation, dose end: 30 day, group: systemic.
[1] abbreviates: group: maternal, reproductive / reproductive performance / fertility / fertility + reproductive / reproductive performance / pregnancy index / pregnancy ….
[2] abbreviates: group: parental, systemic / in life observation / body weight / body weight + systemic / in life observation / body weight / body weight gain + systemic / in….
[3] abbreviates: systemic / clinical chemistry / alanine aminotransferase (alt/sgpt) / alanine aminotransferase (alt/sgpt) + systemic / clinical chemistry / ….
The mark [4] stands for this setting: systemic / organ weight / liver / absolute + systemic / pathology microscopic / liver / hypertrophy.

The term LOAEL denotes the lowest dose or exposure tested at which an adverse effect was seen. One may read the NOAEL as the highest tested level that showed no adverse finding.

A value given as a limit tells only on which side of the number the result lay.

On to `CCc1c(C(=O)NN2CCCCC2)nn(-c2ccc(Cl)cc2Cl)c1-c1ccc(Br)cc1` [Surinabant], for which the LEL in the series on dog turned out to be 10 mg/kg/day; in the series with rat (setting [1]) it was 300 mg/kg/day; in the series with rat (setting [2]) it was 100 mg/kg/day. The LOAEL came to 10 mg/kg/day with dog; 300 mg/kg/day in the series with rat (setting [1]); 300 mg/kg/day with rat (group: parental, systemic / pathology gross / sperm measure / sperm count). Also, the NEL with dog was under 10 mg/kg/day; in the series on rat (setting [1]), 100 mg/kg/day; in the series on rat (setting [2]), under 100 mg/kg/day. The NOAEL was under 10 mg/kg/day in the series with dog; 100 mg/kg/day with rat (setting [1]); 100 mg/kg/day in the series on rat (group: parental, systemic / pathology gross / sperm measure / sperm count + systemic / in life observation / body weight / body weight + systemic / in life …).
As to `CCc1nn(CCO)c(CC)c1Oc1cc(C#N)cc(C#N)c1` [Lersivirine], in the series with mouse (setting [3]), the LOAEL was over 500 mg/kg/day and the NOAEL was at least 500 mg/kg/day. Further, in the series with mouse (setting [4]), the LEL came to 50 mg/kg/day and the NEL was under 50 mg/kg/day.
